The conditions of data set [1]: cited from earlier work.
Data set [2] relates to Rutgers Tomato. The data set can be described thus: Relative suppression effect of selective S-(+)-ABA formulations on Rutgers Tomato (regression). In kind it is in vivo. The conditions noted are these: treatment at 100 ppm. Here is the method: (§1) Seedlings of Rutgers Tomato were sprayed with 4 ml water or treatment solution at the 3-4 leaf stage and held under well watered conditions in a greenhouse. Transpiration was measured daily for 3 days after treatment with a LiCor 1600 porometer. Transpiration readings were converted to percent of control to compensate for daily differences due to environmental factors like light intensity, humidity, and temperature.

In data set [3] the test system is Rutgers tomato seedlings. The data set can be described thus: Transpiration rate of Rutgers tomato seedlings after foliar spray (LiCor 1600 porometer). In kind it is in vivo. The conditions noted are these: for Transpiration rate as a percentage of control, Average of days 1, 2, and 3 after treatment: average of days 1-3. Here is the method: as §1

Where a name gives a salt, the structure may show the parent alone.

On to `CC1=CC(=O)CC(C)(C)[C@@]1(O)/C=C/C(C)=C\C(=O)O` [abscisic acid, S-(+)-abscisic acid], for which the “solubility in hard water (in words)” value in data set [1] (hard water, compared with pure water) is “even less”. The “highest concentration that can be achieved in pure water” value in data set [1] (pure water at room temperature) was “about 3000 ppm”. Also, the water solubility in data set [1] (water at 24° C.) is recorded as roughly 3 grams/1000 mL.

Consider `CC1=CC(=O)CC(C)(C)[C@@]1(O)/C=C/C(C)=C\C(=O)O` [ABA, ammonium salt of (S)-(+)-abscisic acid], for which the “Equivalent to s-ABA (ppm) ABA (ppm)” value in data set [2] (Rutgers Tomato, regression) was 100 ppm. The “Log[ABA]” value in data set [2] (log of equivalent s-ABA ppm) stood at 2.00. In addition, in data set [2] (relative to 100 ppm ABA), the “(Regression) Calculated Enhancement” value is 1.00. Also, the “Transpiration rate as a percentage of the transpiration rate of control plants, 1 day after treatment” value in data set [3] (75 ppm spray, 4 ml, 3-4 leaf stage) came out at 91%; in data set [3] (250 ppm spray), 72%; in data set [3] (750 ppm spray) it was 60%; in data set [3] (2500 ppm spray) it was 36%. In addition, the “Transpiration rate as a percentage of the transpiration rate of control plants, 2 days after treatment” value is given as 94% in data set [3] (75 ppm spray), 102% in data set [3] (250 ppm spray), 83% in data set [3] (750 ppm spray) and 35% in data set [3] (2500 ppm spray). For the same compound, the “Transpiration rate as a percentage of the transpiration rate of control plants, 3 days after treatment” value in data set [3] (75 ppm spray) is recorded as 72%; in data set [3] (250 ppm spray), 75%; in data set [3] (750 ppm spray), 68%; in data set [3] (2500 ppm spray), 43%. The “Transpiration rate as a percentage of control, Average of days 1, 2, and 3 after treatment” value in data set [3] (75 ppm spray) came to 86%; in data set [3] (250 ppm spray), 83%; in data set [3] (750 ppm spray), 70%; in data set [3] (2500 ppm spray), 38%. Moreover, the “Effect of spraying on transpiration (in words)” value in data set [3] (Rutgers tomato seedlings, spray) is listed as “reduced transpiration in a dose dependant manner”.

Values taken from patent US20110065581A1, “Liquid Compositions Containing S-(+)-Abscisic Acid in Combination with Selected Lipophilic Agents and Methods of their Preparation” (priority 2007, published 2011).
